# Assay results from article PMC6587507, “Comparison of the metabolism of 10 chemicals in human and pig skin explants” (Journal of Applied Toxicology, 2018).
# Like-named read-outs stand apart in the source and are kept apart here. Marks after values point to notes of the source that are not given here.
# Key:
# pig ear skin explants [1] = test system: pig ear skin explants
# Method: (§1) Human abdominal skin was obtained (with consent for research from a commercial supplier [L’Union Clinic, Rangueil hospital and Icelltis, Toulouse, France] with certified ethical procedures) from six male and 34 female healthy donors, 41 ± 11 years of age, undergoing cosmetic surgery. Abdominal skin was kept at 4°C during transports and placed in culture within 3 hours of surgery. Pig ear skin was a waste product of the meat industry (without hot steam treatment) from domestic pigs (female Pietrain breed, 6 months old, 80‐100 kg) obtained from a local slaughterhouse (Montauban, France). Ears were taken from the animals within 5 minutes of slaughter and were kept at 4°C during transport to the laboratory, which lasted a maximum of 2 hours. Pig skin samples were dried and then gently shaved.
# (§2) The experiment and the preparation of the culture medium were performed under sterile conditions. Human and pig skin was cut with a dermatome to a thickness of 450 ± 50 μm. Skin punches were seeded dermal side down in polycarbonate Transwell® inserts from Corning Life Sciences (Avon, France; 4.16 cm^2 application area with an 8 μm pore size filter). […] The inserts were placed in a six‐well plate containing 1.5 mL culture medium and the skin explants incubated in a standard incubator at 37°C, under an atmosphere of 5% CO2 and 50 ± 10% relative humidity. The culture medium was Dulbecco's modified Eagle medium without phenol red supplemented with 8 mM L‐glutamine, 2 μg/mL streptomycin/penicillin, 25 ng/mL fungizone and 50 ng/mL gentamycin. Skin explants were incubated for 1 hour before application of the formulation.
# (§3) The dosing volume was 10 μL/cm^2. For pig skin metabolism studies, which were carried out before the human skin experiments to ensure the analytics were optimal, 2.4 nmol/cm^2 of each chemical (only the ^14C‐labeled form) was applied on the skin and incubated for 24 hours for the measurement of metabolites in the medium. These tissues were further incubated for a total of 48 hours, with a replacement of the culture medium after 24 hours. This longer incubation time and the standard doses of 2.4 nmol/cm^2 were used to maximize the likelihood of the skin forming metabolites to develop analytical methods. The metabolites profiles in pig and human skin were compared in the medium sample at 24 hours of incubation. The metabolite profiles for the 48‐hour timepoint are not reported here since humans skin metabolism was measured at 24 hours only; however, for completeness, the distribution of radioactivity at the end of both pig (48 hours) and human (24 hours) skin incubations is reported. […] The doses were obtained by mixing radiolabeled and cold chemical. One replicate disc per donor and per dose was used. All chemicals were tested on four donors of pig and human skin, except for 2‐AAF and 4‐amino‐3‐nitrophenol (4‐A‐3‐NP), for which three donors were used. The medium was removed after 24 hours of incubation and stored at −20°C for analysis.
# (§4) After centrifugation, a 100 μL aliquot of the extract was counted by liquid scintillation. The pellet was dissolved in 3 mL Soluable (60°C, 24 hours) and then counted by liquid scintillation.
# (§5) Analysis of the chemicals and their metabolites in medium after 24 hours of incubation with pig and human skin was measured by radio‐high‐performance liquid chromatography (HPLC) using an HPLC 1100 Series, Agilent and a Flow Scintillation Analyzer, Radiomatic 610 TR, Perkin Elmer (Villebon‐sur‐Yvette, France). […] To confirm that metabolites were the same in pig and human skin, medium samples were co‐injected on the new column. The metabolites were identified by LC‐electrospray ionization‐HRMS (HPLC‐ESI‐HRMS) with a RSLC3000 HPLC system coupled to a LTQ‐Orbitrap XL mass spectrometer (Thermo Scientific). The HPLC analytical conditions for identification and quantification of the metabolites for each chemical are summarized in Supporting information Table S1.
# [2] = test system: human abdominal skin explants
# Method: as §1, §2, §3, §4, §5
# [3] = test system: human abdominal skin explants; experiment: Cutaneous distribution and mass balance of radioactivity in human skin explants
# Method: as §1, §2, §3
# (§6) At the end of the experiment, the trans‐wells were dismantled and washed with appropriate solvent for each chemical. […] The cotton swabs were placed in 5 mL of appropriate solvent in a scintillation counting flask and placed in a sonicator bath for 20 minutes. Aliquots of 1 mL were counted by liquid scintillation, after addition of 15 mL of scintillation liquid. Tissue culture inserts were washed with 10 mL of appropriate solvent. One aliquot of 1 mL was counted by liquid scintillation, after addition of 15 mL of scintillation liquid. After media removal, wells were washed twice with 1 mL of the appropriate solvent. Washing solutions were counted by liquid scintillation, after addition of 15 mL of scintillation liquid.
# (§7) Pig skin explants were digested using 3 mL Soluable (60°C for 24 hours) and counted by liquid scintillation. Skin extraction process was adapted according to the physicochemical properties of each chemical and its potential metabolites.
# pig ear skin explants [4] = experiment: Cutaneous distribution and mass balance of radioactivity in pig skin explants
# Method: as §1, §2, §3, §6, §7
# [5] = cinnamyl alcohol applied to pig skin, 24 h
# [6] = cinnamyl alcohol applied to pig skin, medium 24 h
# [7] = cinnamyl alcohol applied to human skin, 24 h
# [8] = propyl paraben applied to pig skin, 24 h
# [9] = propyl paraben applied to human skin, 24 h
# [10] = vanillin applied to pig skin, 24 h
# [11] = vanillin applied to human skin, 24 h
# [12] = human skin, end of incubation (24 h), mean ± SD
# [13] = pig skin, end of incubation (48 h), mean ± SD
compound,measurement,setting,value
"O=C(O[C@@H]1O[C@H](C(=O)O)[C@@H](O)[C@H](O)[C@H]1O)c1ccccc1 [II (benzoic acid glucuronide), benzoic acid glucuronide]",Amount of metabolite in the medium after 24 h,pig ear skin explants [1],0.5 ± 0.04 % Applied dose
same,Amount of metabolite in the medium after 24 h,[2],4.6 ± 0.4 % Applied dose
O=C(O)[C@H]1O[C@@H](Oc2ccc3ccc(=O)oc3c2)[C@H](O)[C@@H](O)[C@@H]1O [HC‐glucuronide],Amount of metabolite in the medium after 24 h,pig ear skin explants [1],4.9 ± 0.9 % Applied dose
same,Amount of metabolite in the medium after 24 h,[2],2.2 ± 1.2 % Applied dose
Nc1ccc(OC2OC(C(=O)O)C(O)C(O)C2O)cc1[N+](=O)[O-] (stereo not drawn) [4‐A‐3‐NP‐glucuronide],Amount of metabolite in the medium after 24 h,pig ear skin explants [1],45.5 ± 0.2 % Applied dose
same,Amount of metabolite in the medium after 24 h,[2],35.0 ± 2.4 % Applied dose
"O=C(O)/C=C/c1ccccc1 [VI (cinnamic acid), cinnamic acid]",Amount of metabolite in the medium after 24 h,pig ear skin explants [1]; [5],9.0 ± 0.4 % Applied dose
same,Metabolite as share of the total metabolites,pig ear skin explants [1]; [6],15 % of the total metabolites
same,Amount of metabolite in the medium after 24 h,[2]; [7],0.8 ± 1.5 % Applied dose
"O=C(O)CNC(=O)c1ccccc1 [V (benzoic acid‐glycine conjugate), benzoylglycine]",Amount of metabolite in the medium after 24 h,pig ear skin explants [1]; [5],4.4 ± 1.1 % Applied dose
same,Amount of metabolite in the medium after 24 h,[2]; [7],1.3 ± 0.1 % Applied dose
O=c1ccc2ccc(OS(=O)(=O)[O-])cc2o1.[K+] [HC‐sulfate],Amount of metabolite in the medium after 24 h,pig ear skin explants [1],2.6 ± 0.9 % Applied dose
same,Amount of metabolite in the medium after 24 h,[2],0.9 ± 0.6 % Applied dose
"O=C(O)/C=C\C(=O)O [II (maleic acid), maleic acid]",Amount of metabolite in the medium after 24 h,pig ear skin explants [1]; [8],5.6 ± 0.3 % Applied dose
same,Amount of metabolite in the medium after 24 h,[2]; [9],0.5 ± 0.03 % Applied dose
O=C(O)C1OC(Oc2cccc(O)c2)C(O)C(O)C1O (stereo not drawn) [R‐glucuronide],Amount of metabolite in the medium after 24 h,pig ear skin explants [1],48.6 ± 0.8 % Applied dose
same,Amount of metabolite in the medium after 24 h,[2],33.7 ± 0.6 % Applied dose
"COc1cc(C=O)ccc1O[C@@H]1O[C@H](C(=O)O)[C@@H](O)[C@H](O)[C@H]1O [III (vanillin glucuronide), vanillin glucuronide]",Amount of metabolite in the medium after 24 h,pig ear skin explants [1],2.9 ± 0.8 % Applied dose
Nc1ccc(OS(=O)(=O)O)cc1[N+](=O)[O-] [4‐A‐3‐NP‐sulfate],Amount of metabolite in the medium after 24 h,pig ear skin explants [1],1.8 ± 0.3 % Applied dose
same,Amount of metabolite in the medium after 24 h,[2],9.98 ± 2.7 % Applied dose
hydroxycinnamic acid [I (HCA)],Amount of metabolite in the medium after 24 h,pig ear skin explants [1],15.7 ± 1.3 % Applied dose
same,Metabolite as share of the total metabolites,pig ear skin explants [1],27 % of the total metabolites
same,Amount of metabolite in the medium after 24 h,[2],18.0 ± 0.9 % Applied dose
same,Metabolite as share of the total metabolites,[2],25 % of the total metabolites
"O=c1ccc2ccc(O)cc2o1 [HC, 7‐hydroxycoumarin]",Amount of metabolite in the medium after 24 h,"pig ear skin explants [1]; 7‐EC applied to pig skin, 24 h",1.5 ± 0.8 % Applied dose
same,Amount of metabolite in the medium after 24 h,"[2]; 7‐EC applied to human skin, 24 h",1.4 ± 0.4 % Applied dose
"COc1cc(C(=O)O)ccc1O [V (vanillic acid), vanillic acid]",Amount of metabolite in the medium after 24 h,pig ear skin explants [1]; [10],5.8 ± 0.1 % Applied dose
same,Amount of metabolite in the medium after 24 h,[2]; [11],33.5 ± 4.0 % Applied dose
same,Amount of metabolite in the medium after 24 h,"[2]; vanillin applied to human skin, 24 h, listed as vanillic acid",34 % Applied dose
O=S(=O)(O)Oc1cccc(O)c1 [R‐sulfate],Amount of metabolite in the medium after 24 h,pig ear skin explants [1],0.5 ± 0.03 % Applied dose
same,Amount of metabolite in the medium after 24 h,[2],8.2 ± 0.1 % Applied dose
"O=C(O)c1ccc(O)cc1 [X (4‐HBA), 4‐hydroxybenzoic acid]",Amount of metabolite in the medium after 24 h,pig ear skin explants [1]; [8],9.5 ± 0.6 % Applied dose
same,Amount of metabolite in the medium after 24 h,"pig ear skin explants [1]; propyl paraben applied to pig skin, 24 h, listed as 4‐hydroxybenzoic acid",9.5 % Applied dose
same,Amount of metabolite in the medium after 24 h,[2]; [9],42.09 ± 2.8 % Applied dose
"O=Cc1ccc(O)c(O)c1 [IV (Protocatechuic aldehyde), protocatechuic aldehyde]",Amount of metabolite in the medium after 24 h,pig ear skin explants [1]; [10],20.7 ± 1.0 % Applied dose
same,Amount of metabolite in the medium after 24 h,"pig ear skin explants [1]; vanillin applied to pig skin, 24 h, listed as protocatechuic aldehyde",21 % Applied dose
same,Amount of metabolite in the medium after 24 h,[2]; [11],2.4 ± 1.1 % Applied dose
"O=C(O)c1ccccc1 [B (benzoic acid), benzoic acid]",Amount of metabolite in the medium after 24 h,pig ear skin explants [1]; [5],4.8 ± 1.0 % Applied dose
same,Metabolite as share of the total metabolites,pig ear skin explants [1]; [6],8 % of the total metabolites
same,Amount of metabolite in the medium after 24 h,[2]; [7],0.0 ^* % Applied dose
CCCOC(=O)c1ccc(O)cc1 [Propyl paraben],% Radioactivity in culture media after 24 h,"[3]; both, human, 24 h",66.0 ± 9.2%
same,Mass balance (% of applied dose at end of incubation),"[3]; both, human, 24 h",91.8 ± 6.6 % of applied dose
same,Medium radioactivity,"[3]; both, human, 24 h",61.5 ± 3.9 % of the applied dose
same,Skin radioactivity,"[3]; both, human, 24 h",27.6 ± 7.0 % of the applied dose
same,Skin surface radioactivity,"[3]; both, human, 24 h",2.8 ± 2.3 % of the applied dose
same,Parent compound in the medium after 24 h,"pig ear skin explants [1]; female, Pietrain, pig, 24 h",0.0 % Applied dose
same,Total metabolites in the medium after 24 h,"pig ear skin explants [1]; female, Pietrain, pig, 24 h",50.3 ± 1.1 % Applied dose
same,Number of metabolites detected in the culture medium,"[2]; both, human, 24 h",12
same,Parent compound in the medium after 24 h,"[2]; both, human, 24 h",0.2 ± 0.2 % Applied dose
same,Total metabolites in the medium after 24 h,"[2]; both, human, 24 h",55.8 ± 2.9 % Applied dose
same,Mass balance (% of applied dose at end of incubation),"pig ear skin explants [4]; female, Pietrain, pig, 48 h",98.7 ± 3.3 % of applied dose
same,Medium radioactivity,"pig ear skin explants [4]; female, Pietrain, pig, 48 h",77.8 ± 4.8 % of the applied dose
same,Skin radioactivity,"pig ear skin explants [4]; female, Pietrain, pig, 48 h",15.9 ± 3.0 % of the applied dose
same,Skin surface radioactivity,"pig ear skin explants [4]; female, Pietrain, pig, 48 h",5.0 ± 1.8 % of the applied dose
Cn1c(=O)c2c(ncn2C)n(C)c1=O [Caffeine],% Radioactivity in culture media after 24 h,"[3]; human skin, 24 h",81.4 ± 3.3%
same,Mass balance (% of applied dose at end of incubation),"[3]; human skin, 24 h",104.0 ± 0.7 % of applied dose
same,Medium radioactivity,[3]; [12],81.4 ± 3.3 % of the applied dose
same,Skin radioactivity,[3]; [12],21.8 ± 2.5 % of the applied dose
same,Skin surface radioactivity,[3]; [12],0.8 ± 0.8 % of the applied dose
same,% Radioactivity in culture media after 24 h,"pig ear skin explants [4]; pig skin, 24 h, 2.4 nmol/cm^2",72.0 ± 4.0%
same,Mass balance (% of applied dose at end of incubation),"pig ear skin explants [4]; pig skin, 48 h, 2.4 nmol/cm^2",109.2 ± 3.3 % of applied dose
same,Skin radioactivity,pig ear skin explants [4]; [13],8.4 ± 0.4 % of the applied dose
same,Skin surface radioactivity,pig ear skin explants [4]; [13],8.8 ± 10.6 % of the applied dose
